Measurements published in patent US8268854B2, “Aza-beta-carbolines and methods of using same” (The UWM Research Foundation, Inc., priority 2008, dated 2012).
Structures can show the parent of a compound that is named as a salt.

Target: T1, Dopamine receptor D4 (Homo sapiens, UniProt P21917)
T1 construct: expressed in transfected cells
T1 sequence (P21917 1-419): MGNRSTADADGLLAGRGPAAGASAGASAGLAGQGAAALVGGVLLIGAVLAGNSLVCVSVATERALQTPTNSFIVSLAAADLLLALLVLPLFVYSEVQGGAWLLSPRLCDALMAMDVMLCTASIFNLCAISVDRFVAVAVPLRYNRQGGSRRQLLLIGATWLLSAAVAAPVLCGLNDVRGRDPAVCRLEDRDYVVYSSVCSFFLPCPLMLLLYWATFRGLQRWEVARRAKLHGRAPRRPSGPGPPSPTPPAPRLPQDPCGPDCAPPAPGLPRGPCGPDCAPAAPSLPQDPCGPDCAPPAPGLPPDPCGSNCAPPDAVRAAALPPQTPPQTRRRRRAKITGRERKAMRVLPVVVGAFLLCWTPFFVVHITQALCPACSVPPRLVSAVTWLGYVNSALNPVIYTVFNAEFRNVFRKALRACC
Assay: PDSP secondary radioligand binding assay
Protocol: Primary and secondary radioligand binding assays are performed. In general, the primary assay is run at very high ligand (compound) concentration as a broad screen to determine whether a compound binds to a particular receptor. If greater than 50% inhibition at 10 μM (high concentration of compound) at a particular receptor is determined, a secondary assay is performed on that receptor. Data from the secondary assay is the binding affinity (Ki value).
This assay is used to test binding to receptors such as the serotonin receptors: 5-HT1A, 5-HT1B, 5-HT1D, 5-HT1E, 5-HT2A, 5-HT2B, 5-HT2C, 5-HT3, 5-HT5A, 5-HT6 and 5-HT7. The protocol is adapted from Roth et al. J. Pharmacol. Exp. Ther. 1986, 238, 480-485 and Roth et al. J. Pharmacol. Exp. Ther. 1994, 268, 1403-1410. The assay buffer is Standard Binding Buffer (50 mM Tris-HCl, 10 mM MgCl2, 0.1 mM EDTA, pH 7.4). The membrane fraction source is transiently or stably transfected cell lines (e.g., HEK293, COS, CHO, NIH3T3).
A solution of the compound to be tested is prepared as a 1 mg/mL stock in Standard Binding Buffer or DMSO according to its solubility. A similar stock of a reference compound (positive control) is also prepared.
Radioligand (see Table 41) is diluted to five times the assay concentration (see Table 21) in Standard Binding Buffer. […]
The 250 μL reactions are incubated at room temperature and shielded from light (to prevent photolysis of light-sensitive ligands) for 1.5 hours, then harvested by rapid filtration onto Whatman GF/B glass fiber filters pre-soaked with 0.3% polyethyleneimine using a 96-well Brandel harvester. […] The tubes are capped, labeled, and counted by liquid scintillation counting. For higher throughput assays, bound radioactivity is harvested onto 0.3% polyethyleneimine-treated, 96-well filter mats using a 96-well Filtermate harvester. The filter mats are dried, then scintillant is melted onto the filters, and the radioactivity retained on the filters is counted in a Microbeta scintillation counter. […]

CCCOc1cc2c(cn1)[nH]c1ccncc12 [Compound 2, 8-Propoxypyridino[4′,3′-5,4]pyrrolo[3,2-c]pyridine hydrochloride]
Ki: 7.5 µM
